Patent publication US11505527B1, “Tetrahydroquinoline derivatives and a process of preparation thereof” (King Abdulaziz University, priority 2022, dated 2022)
Like-named read-outs stand apart in the source and are kept apart here.

Legend:
[1] = tested on: human breast cancer MCF-7 cell line; assay: MTT cell viability assay against MCF-7 cells; assay type: cell-based; details: vs standard drug staurosporine
Experimental: (§1) For this purpose, cells suspended in the medium (2×10^4 cells/mL) were plated in 96-well culture plates and incubated at 37° C. in a 5% CO2 incubator. After 12 h, the test sample ([…]) was added to the cells (2×10^4) in 96-well plates and cultured at 37° C. for 3 days. The cultured cells were mixed with 20 μL (microlitre) of MTT solution and incubated for 4 h at 37° C. The supernatant was carefully removed from each well and […] of DMSO were added to each well to dissolve the formazan crystals which were formed by the cellular reduction of MTT. After mixing with a mechanical plate mixer, the absorbance of each well was measured by a microplate reader using a test wavelength of 570 nm (nanometers). […] Each experiment was performed at least 3 times.

normal WI38 cells = assay: MTT assay against normal WI38 cells (safety profile); assay type: cell-based; details: for IC50 against WI38 cells, fold higher than IC50 against MCF-7 cancer cells: WI38 vs MCF-7; for IC50 against WI38 cells relative to IC50 of staurosporine: vs reference drug staurosporine
Experimental: as §1
One of the features that differentiates various antiproliferative therapeutic agents from each other is the recurrence and severity of their side effects to the normal cells at their therapeutic doses. Accordingly, the safety profile of the most promising candidates (4b, 4j, 4k, and 4e) was evaluated against the normal WI38 cells derived from lung tissues using MTT assay.

EGFR = EGFR (Homo sapiens (Human), UniProt P00533); assay: In vitro kinase inhibition assay, EGFR (Abcam Human In cell ELISA Kit); assay type: biochemical
Chain of EGFR (P00533 25-1210): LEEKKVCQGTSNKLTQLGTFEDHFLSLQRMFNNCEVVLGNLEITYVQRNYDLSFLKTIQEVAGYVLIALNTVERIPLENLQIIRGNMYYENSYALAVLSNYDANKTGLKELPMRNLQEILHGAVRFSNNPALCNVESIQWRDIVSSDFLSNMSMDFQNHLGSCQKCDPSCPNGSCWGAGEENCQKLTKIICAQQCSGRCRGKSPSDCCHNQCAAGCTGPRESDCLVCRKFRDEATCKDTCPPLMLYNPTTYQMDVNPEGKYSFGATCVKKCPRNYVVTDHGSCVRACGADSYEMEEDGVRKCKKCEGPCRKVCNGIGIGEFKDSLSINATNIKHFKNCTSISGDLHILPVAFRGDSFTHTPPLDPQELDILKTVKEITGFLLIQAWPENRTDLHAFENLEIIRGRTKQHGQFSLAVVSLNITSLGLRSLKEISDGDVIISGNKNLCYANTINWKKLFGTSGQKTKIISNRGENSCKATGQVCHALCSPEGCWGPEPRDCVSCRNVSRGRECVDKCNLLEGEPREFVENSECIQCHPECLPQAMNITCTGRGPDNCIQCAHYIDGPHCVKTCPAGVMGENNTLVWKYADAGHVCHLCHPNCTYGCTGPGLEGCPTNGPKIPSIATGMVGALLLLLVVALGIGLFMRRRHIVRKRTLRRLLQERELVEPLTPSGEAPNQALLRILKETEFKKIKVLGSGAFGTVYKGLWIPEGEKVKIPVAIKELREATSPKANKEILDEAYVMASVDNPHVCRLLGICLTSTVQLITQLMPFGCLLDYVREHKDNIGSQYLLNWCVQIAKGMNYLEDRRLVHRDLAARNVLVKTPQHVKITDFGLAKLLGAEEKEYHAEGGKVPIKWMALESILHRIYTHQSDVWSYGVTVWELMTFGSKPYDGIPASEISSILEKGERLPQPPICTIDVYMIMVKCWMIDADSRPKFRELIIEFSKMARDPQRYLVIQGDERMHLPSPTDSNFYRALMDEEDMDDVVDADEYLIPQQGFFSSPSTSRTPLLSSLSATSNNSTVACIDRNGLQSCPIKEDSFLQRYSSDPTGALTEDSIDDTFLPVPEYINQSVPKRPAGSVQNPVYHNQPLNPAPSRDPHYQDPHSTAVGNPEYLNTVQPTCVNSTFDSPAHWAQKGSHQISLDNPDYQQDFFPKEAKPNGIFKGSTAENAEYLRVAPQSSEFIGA
Excerpt: (§2) RTK's play essential roles in regulation of cell proliferation, differentiation, survival and apoptosis. Aberrant expression of RTK results in cell growth dysfunction leading to tumor takeover, angiogenesis, and metastasis. They also produce their actions in a synergistic pattern in regulating tumor response to different anticancer RTK inhibitor drug therapies. […] The procedure of the used kits was done according to the manufacturer's instructions.

HER-2 = HER-2 (Homo sapiens (Human), UniProt P04626); assay: In vitro kinase inhibition assay, HER2 (ADP-Glo Kinase Assay); assay type: biochemical
Chain of HER-2 (P04626 23-1255): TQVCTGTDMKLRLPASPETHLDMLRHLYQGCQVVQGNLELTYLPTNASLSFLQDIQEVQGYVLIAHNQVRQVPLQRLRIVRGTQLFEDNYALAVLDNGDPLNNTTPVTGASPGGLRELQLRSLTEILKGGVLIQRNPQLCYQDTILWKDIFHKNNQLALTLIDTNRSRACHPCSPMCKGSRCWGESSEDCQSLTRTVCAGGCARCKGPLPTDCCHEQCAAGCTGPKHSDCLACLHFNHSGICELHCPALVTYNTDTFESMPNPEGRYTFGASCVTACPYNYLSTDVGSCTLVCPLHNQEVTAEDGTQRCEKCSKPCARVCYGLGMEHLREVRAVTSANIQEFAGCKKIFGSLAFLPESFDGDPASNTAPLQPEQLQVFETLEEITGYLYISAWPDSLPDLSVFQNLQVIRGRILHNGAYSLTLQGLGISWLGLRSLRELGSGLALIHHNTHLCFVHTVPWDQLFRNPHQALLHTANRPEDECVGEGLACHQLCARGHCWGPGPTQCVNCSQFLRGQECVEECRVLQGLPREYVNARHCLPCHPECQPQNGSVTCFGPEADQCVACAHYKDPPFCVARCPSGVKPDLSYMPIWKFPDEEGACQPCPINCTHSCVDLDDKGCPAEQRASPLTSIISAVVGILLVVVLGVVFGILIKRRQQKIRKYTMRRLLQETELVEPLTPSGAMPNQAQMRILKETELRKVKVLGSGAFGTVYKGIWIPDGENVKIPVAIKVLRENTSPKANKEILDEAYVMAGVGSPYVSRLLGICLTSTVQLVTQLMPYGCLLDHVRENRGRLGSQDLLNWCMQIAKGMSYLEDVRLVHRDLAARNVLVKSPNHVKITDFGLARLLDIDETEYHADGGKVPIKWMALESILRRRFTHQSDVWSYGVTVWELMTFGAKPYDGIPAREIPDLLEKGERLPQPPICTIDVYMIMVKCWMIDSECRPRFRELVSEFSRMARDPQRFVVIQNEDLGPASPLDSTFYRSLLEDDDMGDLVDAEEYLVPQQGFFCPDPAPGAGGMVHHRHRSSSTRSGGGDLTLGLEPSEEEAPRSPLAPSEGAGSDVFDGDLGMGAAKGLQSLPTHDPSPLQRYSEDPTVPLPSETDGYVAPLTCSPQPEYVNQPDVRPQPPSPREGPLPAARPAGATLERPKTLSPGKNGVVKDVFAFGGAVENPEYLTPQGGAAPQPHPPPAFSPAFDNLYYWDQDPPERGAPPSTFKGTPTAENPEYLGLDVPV
Excerpt: as §2

PDGFR-β = PDGFR-β (Homo sapiens (Human), UniProt P09619); assay: In vitro kinase inhibition assay, PDGFR-β; assay type: biochemical
Chain of PDGFR-β (P09619 33-1106, species assumed): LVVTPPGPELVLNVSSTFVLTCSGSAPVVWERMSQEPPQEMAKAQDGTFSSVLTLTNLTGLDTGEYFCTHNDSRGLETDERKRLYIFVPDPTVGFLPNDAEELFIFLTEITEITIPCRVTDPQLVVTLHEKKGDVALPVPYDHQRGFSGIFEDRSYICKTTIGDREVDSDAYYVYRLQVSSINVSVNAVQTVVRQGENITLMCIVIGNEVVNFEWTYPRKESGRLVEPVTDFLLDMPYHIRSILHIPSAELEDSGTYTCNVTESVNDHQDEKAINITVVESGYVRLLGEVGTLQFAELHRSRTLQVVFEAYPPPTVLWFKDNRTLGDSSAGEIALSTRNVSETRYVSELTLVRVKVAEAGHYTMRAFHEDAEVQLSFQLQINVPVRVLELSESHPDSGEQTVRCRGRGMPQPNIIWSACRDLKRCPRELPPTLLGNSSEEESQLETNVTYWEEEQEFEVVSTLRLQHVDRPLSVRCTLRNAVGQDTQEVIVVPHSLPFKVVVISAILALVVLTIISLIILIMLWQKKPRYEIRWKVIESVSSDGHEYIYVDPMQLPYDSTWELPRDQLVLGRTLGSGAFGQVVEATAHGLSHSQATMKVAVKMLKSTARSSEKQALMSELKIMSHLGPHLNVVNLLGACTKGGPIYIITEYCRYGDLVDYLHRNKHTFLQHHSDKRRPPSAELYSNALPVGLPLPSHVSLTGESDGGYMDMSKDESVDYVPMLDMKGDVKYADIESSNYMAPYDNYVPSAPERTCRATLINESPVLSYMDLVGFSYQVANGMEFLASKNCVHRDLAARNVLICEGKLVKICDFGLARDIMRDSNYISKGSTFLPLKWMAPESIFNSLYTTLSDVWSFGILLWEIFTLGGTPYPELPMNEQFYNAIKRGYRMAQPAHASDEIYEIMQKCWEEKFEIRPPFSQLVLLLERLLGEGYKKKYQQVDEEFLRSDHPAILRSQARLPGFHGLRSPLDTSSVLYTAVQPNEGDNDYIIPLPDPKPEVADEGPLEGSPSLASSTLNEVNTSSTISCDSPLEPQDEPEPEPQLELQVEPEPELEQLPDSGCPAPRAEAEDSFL
Excerpt: as §2

VEGFR-2 = VEGFR-2 (Homo sapiens (Human), UniProt P35968); assay: In vitro kinase inhibition assay, VEGFR2 (KDR) Kinase Assay Kit; assay type: biochemical; details: for VEGFR-2 inhibitory effect, fold less than Sorafenib: vs Sorafenib
Chain of VEGFR-2 (P35968 20-1356): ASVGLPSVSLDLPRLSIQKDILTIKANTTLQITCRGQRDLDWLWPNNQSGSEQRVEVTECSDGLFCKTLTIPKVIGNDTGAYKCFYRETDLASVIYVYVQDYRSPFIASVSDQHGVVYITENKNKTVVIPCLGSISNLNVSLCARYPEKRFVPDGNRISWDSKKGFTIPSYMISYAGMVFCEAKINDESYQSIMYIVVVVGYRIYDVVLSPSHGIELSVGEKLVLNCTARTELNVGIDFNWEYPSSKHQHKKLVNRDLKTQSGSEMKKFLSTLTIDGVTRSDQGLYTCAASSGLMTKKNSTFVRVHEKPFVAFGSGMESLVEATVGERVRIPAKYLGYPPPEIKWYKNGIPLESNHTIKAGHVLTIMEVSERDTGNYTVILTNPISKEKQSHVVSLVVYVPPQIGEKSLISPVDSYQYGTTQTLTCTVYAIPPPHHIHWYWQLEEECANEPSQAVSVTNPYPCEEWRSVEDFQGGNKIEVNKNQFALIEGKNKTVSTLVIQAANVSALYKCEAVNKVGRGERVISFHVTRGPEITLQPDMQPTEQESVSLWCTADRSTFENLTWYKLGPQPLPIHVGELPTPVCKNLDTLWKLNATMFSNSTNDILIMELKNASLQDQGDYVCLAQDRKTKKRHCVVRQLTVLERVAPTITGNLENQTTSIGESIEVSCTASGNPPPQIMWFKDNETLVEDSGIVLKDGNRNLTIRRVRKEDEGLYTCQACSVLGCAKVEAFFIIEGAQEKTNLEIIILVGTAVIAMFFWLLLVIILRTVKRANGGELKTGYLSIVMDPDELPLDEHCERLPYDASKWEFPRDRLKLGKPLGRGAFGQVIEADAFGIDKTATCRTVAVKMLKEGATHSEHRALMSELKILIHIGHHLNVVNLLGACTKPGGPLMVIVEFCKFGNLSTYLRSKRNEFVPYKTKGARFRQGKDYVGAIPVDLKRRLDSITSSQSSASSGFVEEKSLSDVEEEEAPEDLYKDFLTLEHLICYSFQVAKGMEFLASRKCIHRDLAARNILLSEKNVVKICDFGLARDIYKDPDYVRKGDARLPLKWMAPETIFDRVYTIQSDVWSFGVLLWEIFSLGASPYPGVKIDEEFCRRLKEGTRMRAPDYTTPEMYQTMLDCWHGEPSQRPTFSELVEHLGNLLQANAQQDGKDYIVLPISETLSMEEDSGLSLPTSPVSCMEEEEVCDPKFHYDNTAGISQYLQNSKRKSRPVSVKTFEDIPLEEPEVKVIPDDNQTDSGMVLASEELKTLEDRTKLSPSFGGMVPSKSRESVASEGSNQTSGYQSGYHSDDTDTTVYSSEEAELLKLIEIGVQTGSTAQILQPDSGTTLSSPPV
Excerpt: as §2

MCF-7 cancer cells = assay: Annexin-V/PI apoptosis assay, flow cytometry; assay type: cell-based, human; details: MCF-7, compound at IC50 concentration, 24 h; control 0.66%
Excerpt: Flow cytometry method has been used to detect the corresponding red (PI) and green (FITC) fluorescence.
The induction of apoptosis is one of the most crucial tools that confirm the effectiveness of cancer therapy. Cell cycle checkpoints are G1 (restriction or start), S ([…]), and G2/M. One of the main functions of the anticancer therapeutics is stoppage of the cell division at these checkpoints. […] The cells were stained with Annexin V/PI and examined using flow cytometry procedure. For cell cycle analysis, cell pellets were fixed with 70% ethanol on ice for 15 min. and collected again. The collected pellets were incubated with propidium iodide (PI) staining solution ([…] PI, 0.1 mg/mL RNaseA, 0.05% Triton X-100) at room temperature for 1 hand analyzed by Gallios flow cytometer (Beckman Coulter, Brea, CA, USA). Apoptosis detection was performed by FITC Annexin V/PI commercial kit (Becton Dickenson, Franklin Lakes, N.J., USA) following the manufacture protocol. The samples were analyzed by fluorescence-activated cell sorting (FACS) with a Gallios flow cytometer (Beckman Coulter, Brea, Calif., USA) within 1 h after staining Data were analyzed using Kaluzav 1.2 (Beckman Coulter).

[2] = unit mM, read-out: EGFR IC50 (converted)

Structure (SMILES): Cc1ccc(S(=O)(=O)c2ccc(C3C(C(=O)c4ccc(Br)cc4)=C(N)NC4=C3C(=O)CC(C)(C)C4)cc2)cc1 (stereo not shown) [Compound 4l, 2-amino-3-(4-bromobenzoyl)-7,7-dimethyl-4-(4-tosylphenyl)-4,6,7,8-tetrahydroquinolin-5(1H)-one]
- fold less potent than the standard drug staurosporine (MCF-7) [1]: 1.4 fold

Structure (SMILES): CN[C@@H]1C[C@H]2O[C@@](C)([C@@H]1OC)n1c3ccccc3c3c4c(c5c6ccccc6n2c5c31)C(=O)NC4 [Staurosporine, reference compound]
- IC50 (normal WI38 cells; MTT, normal lung-derived cells): 13 ± 2 nM

Structure (SMILES): Cc1ccc(S(=O)(=O)c2ccc(C3C(C(=O)c4ccccc4)=C(N)NC4=C3C(=O)CC(C)(C)C4)cc2)cc1 (stereo not shown) [Compound 4j, 2-amino-3-benzoyl-7,7-dimethyl-4-(4-tosylphenyl)-4,6,7,8-tetrahydroquinolin-5(1H)-one]
- fold more potent activity than staurosporine (MCF-7) [1]: 1-1.6 fold
- IC50 against WI38 cells, fold higher than IC50 against MCF-7 cancer cells (normal WI38 cells): 20 fold
- IC50 against WI38 cells relative to IC50 of staurosporine (normal WI38 cells): about 3 fold
- IC50 (EGFR; EGFR IC50, Table 4, heading: EGFR IC50): 70 ± 20 nM
- IC50 (EGFR; differs from Table 4, read-out: EGFR IC50 (converted)): 77.4 nM
- IC50 (EGFR; [2]): 70 nM
- IC50 (HER-2; Table 4, heading: HER-2 IC50, read-out: HER-2 IC50 (converted)): 170 ± 20 nM
- IC50 (HER-2; differs from Table 4, read-out: HER-2 IC50 (converted)): 171 nM
- IC50 (HER-2; unit mM, read-out: HER-2 IC50 as restated in text): 170 nM
- PDGFR-β inhibition, fold more than reference sorafenib (PDGFR-β): 0.7 fold
- IC50 (PDGFR-β; Table 4): 0.133 nM
- IC50 (PDGFR-β; differs from Table 4): 81.6 nM
- PDGFR-a inhibition, fold more than reference sorafenib (PDGFR-β; text b141 prints PDGFR-a): 1.9 fold
- IC50 (VEGFR-2; Table 4): 0.57 nM
- IC50 (VEGFR-2; differs from Table 4): 304 nM
- VEGFR-2 inhibitory effect, fold less than Sorafenib (VEGFR-2): ~1.8 fold
- necrosis percent (MCF-7 cancer cells): 4.2%

Structure (SMILES): CC1(C)CC(=O)C2=C(C1)NC(N)=C(C(=O)c1ccccc1)C2c1ccc(S(=O)(=O)c2ccccc2)cc1 (stereo not shown) [Compound 4d, 2-amino-3-benzoyl-7,7-dimethyl-4-(4-(phenylsulfonyl)phenyl)-4,6,7,8-tetrahydroquinolin-5(1H)-one]
- fold less potent than the standard drug staurosporine (MCF-7) [1]: 1.4 fold

Structure (SMILES): CCOC(=O)C1=C(C(F)(F)F)NC2=C(C(=O)CC(C)(C)C2)C1c1ccc(S(=O)(=O)c2ccccc2)cc1 (stereo not shown) [Compound 4b, ethyl 7,7-dimethyl-5-oxo-4-(4-(phenylsulfonyl)phenyl)-2-(trifluoromethyl)-1,4,5,6,7,8-hexahydroquinoline-3-carboxylate]
- fold more potent activity than staurosporine (MCF-7) [1]: about 2.5 fold
- IC50 against WI38 cells, fold higher than IC50 against MCF-7 cancer cells (normal WI38 cells): 24 fold
- IC50 against WI38 cells relative to IC50 of staurosporine (normal WI38 cells): about 3 fold
- IC50 (EGFR; [2]): 110 nM
- IC50 (HER-2; Table 4, read-out: HER-2 IC50 (converted)): 0.562 nM
- IC50 (PDGFR-β; Table 4): 0.394 nM
- IC50 (VEGFR-2; Table 4): 1.97 nM
- VEGFR-2 inhibitory effect, fold less than Sorafenib (VEGFR-2): about 6.2 fold

Structure (SMILES): Cc1ccc(C(=O)C2=C(N)NC3=C(C(=O)CC(C)(C)C3)C2c2ccc(S(=O)(=O)c3ccccc3)cc2)cc1 (stereo not shown) [Compound 4e, 2-amino-7,7-dimethyl-3-(4-methylbenzoyl)-4-(4-(phenylsulfonyl)phenyl)-4,6,7,8-tetrahydroquinolin-5(1H)-one]
- fold more potent activity than staurosporine (MCF-7) [1]: 1-1.6 fold
- IC50 against WI38 cells, fold higher than IC50 against MCF-7 cancer cells (normal WI38 cells): 4 fold
- IC50 against WI38 cells relative to IC50 of staurosporine (normal WI38 cells): approximately equal

Structure (SMILES): Cc1ccc(C(=O)C2=C(N)NC3=C(C(=O)CC(C)(C)C3)C2c2ccc(S(=O)(=O)c3ccc(C)cc3)cc2)cc1 (stereo not shown) [Compound 4k, 2-amino-7,7-dimethyl-3-(4-methylbenzoyl)-4-(4-tosylphenyl)-4,6,7,8-tetrahydroquinolin-5(1H)-one]
- fold more potent activity than staurosporine (MCF-7) [1]: 1-1.6 fold
- IC50 against WI38 cells, fold higher than IC50 against MCF-7 cancer cells (normal WI38 cells): 4 fold
- IC50 against WI38 cells relative to IC50 of staurosporine (normal WI38 cells): approximately equal
